{"source": "patent EP0623621A1", "about": "“Oxazabicyclo derivatives and their use as 5-HT4 receptor agonists” (NISSHIN FLOUR MILLING CO., LTD., priority 1993, dated 1994)", "system": "longitudinal muscle with adherent myenteric plexus preparation", "experiment": "Gastrointestinal motility promoting action: increase of electrically induced twitch response of isolated guinea pig ileum", "format": "cell-based, guinea pigs", "settings": "compound at 10⁻⁵ M, transmural electrical stimulation (1 msec, 0.1 Hz)", "protocol": "The gastrointestinal motility promoting action of the present compounds was tested by the following method.\nIleum was excised from guinea pigs to prepare longitudinal muscle with adherent myenteric plexus preparation (approximately 2 cm length). The preparation suspended in organ bath containing Krebs-Henselite solution aerated with a mixed gas (5% CO₂, 95% O₂) were subjected to transmural electrical stimulation (1 msec, 0.1 Hz). Consistent twitch response induced by electrical stimulation and increase of twitch response induced by compound were recorded with an isometric transducer. The compounds were dissolved in distilled water or DMSO and tested at concentration of 10⁻⁵ M. The result is shown in terms of percent increase (%) in the contraction height by the electrical stimulation after administration of the compound relative to the contraction height before administration of the compound. Compound of Example 10 16.1% Compound of Example 29 22.4%"}
{"smiles": "COc1cc(N)c(Cl)cc1C(=O)NC1CC2COCC(C1)N2Cc1ccc(F)cc1", "note": "(stereo not drawn) [Example 29, N-[endo-9-(p-fluorobenzyl)-3-oxa-9-azabicyclo[3.3.1]non-7-yl]-4-amino-5-chloro-2-methoxybenzamide]", "values": [{"measurement": "percent increase (%) in the contraction height by the electrical stimulation after administration of the compound relative to the contraction height before administration of the compound", "result": 22.4, "unit": "%"}]}
{"smiles": "CC(C)=CCn1nc(C(=O)NC2CC3COCC(C2)N3Cc2ccc(F)cc2)c2ccccc21", "note": "(stereo not drawn) [Example 10, N-[endo-9-(p-fluorobenzyl)-3-oxa-9-azabicyclo[3.3.1]non-7-yl]-1-(3-methyl-2-butenyl)indazole-3-carboxamide]", "values": [{"measurement": "percent increase (%) in the contraction height by the electrical stimulation after administration of the compound relative to the contraction height before administration of the compound", "result": 16.1, "unit": "%"}]}
